Legend:
[1] = tested on: vascularized liver model; experiment: Cell viability by ATP assay (CellTiter-Glo 3D) after monocrotaline (Test Example 5); assay type: cell-based, human; conditions: vascularized liver model compared to other models, 0 to 600 µM added on Day 7, 7 further days
Protocol: (§1) Except for using a 24-transwell as the culture vessel, culturing a cell mixture of 1.95 × 10^4 human hepatocytes (PXB Cells (registered trademark); manufactured by PhoenixBio Co., Ltd.) and 3.0 × 10^3 immortalized sinusoidal endothelial cells (SEC; manufactured by Sciencell, Product No. 5000) using the HCM medium including 50 ng/mL VEGF-A and 50 ng/mL VEGF-C as vascular development factors and 1 v/v% vascular maintenance factor cocktail,culturing a cell mixture of human hepatocytes (PXB Cells (registered trademark); manufactured by PhoenixBio Co., Ltd.), 7.5 × 10^3 immortalized sinusoidal endothelial cells (SEC, manufactured by Sciencell, Product No. "5000"), and 3.0 × 10^3 hepatic stellate cells (LX2; manufactured by Sigma-Aldrich) using the HCM medium including 1 v/v% vascular maintenance factor cocktail, orculturing a cell mixture of 2.1 × 10^3 immortalized sinusoidal endothelial cells (SEC; manufactured by Sciencell, Product No. "5000") and 9.0 × 10^3 hepatic stellate cells (LX2; manufactured by Sigma-Aldrich) using the HCM medium including 1 v/v% vascular maintenance factor cocktail, cell mixtures were cultured and cell structures were obtained in the same manner as in Test Example 4. […]
In addition, the cell viability of the similarly produced cell structure was also quantified by an ATP assay. […]

[2] = tested on: vascularized liver model; experiment: Vascular toxicity: CD31 immunostaining and blood vessel length after monocrotaline (Test Example 5); assay type: cell-based, human; conditions: vascularized liver model compared to other models; 0 to 600 µM added on Day 7, 7 further days; relative to no monocrotaline = 100%
Protocol: as §1
In addition, vascular structures were extracted from the microscopic images shown in FIGS. 8 and 9, and the blood vessel lengths of the cell structures were measured. […]

`C[C@H]1C(=O)O[C@@H]2CCN3CC=C(COC(=O)[C@](C)(O)[C@]1(C)O)[C@H]23` [monocrotaline] was tested, and the cell viability [1] was “concentration-dependent decrease in cell viability” and the blood vessel length [2] was “notably shorter blood vessel length”.

— patent EP4692321A1, “CELL STRUCTURE PRODUCTION METHOD” (Toppan Holdings Inc., priority 2023, dated 2024)
